PubChem BioAssay AID1259407 (Chemical Carcinogenesis Research Information System (CCRIS), 2018)
Calls of active or inactive are those of the source. How the calls were made is not given here.

Tested on: CCRIS mutagenicity, Ames/micronucleus/aberration tests
Assay: CCRIS mutagenicity studies
[1] = End Point: IN VITRO MICRONUCLEUS, Test System: MOUSE LYMPHOMA L5178Y CELLS, Metabolic Activation: NONE
[2] = Test System: AMES SALMONELLA TYPHIMURIUM, Strain/Indicator: TA98, Metabolic Activation: NONE, Method: STANDARD PLATE
[3] = Test System: AMES SALMONELLA TYPHIMURIUM, Strain/Indicator: TA98, Metabolic Activation: RAT, LIVER, S-9, AROCLOR 1254, Method: STANDARD PLATE
[4] = Test System: AMES SALMONELLA TYPHIMURIUM, Strain/Indicator: TA100, Metabolic Activation: NONE, Method: STANDARD PLATE
[5] = Test System: AMES SALMONELLA TYPHIMURIUM, Strain/Indicator: TA100, Metabolic Activation: RAT, LIVER, S-9, AROCLOR 1254, Method: STANDARD PLATE
[6] = Test System: AMES SALMONELLA TYPHIMURIUM, Strain/Indicator: TA1535, Metabolic Activation: NONE, Method: STANDARD PLATE
[7] = Test System: AMES SALMONELLA TYPHIMURIUM, Strain/Indicator: TA1535, Metabolic Activation: RAT, LIVER, S-9, AROCLOR 1254, Method: STANDARD PLATE
[8] = Test System: AMES SALMONELLA TYPHIMURIUM, Strain/Indicator: TA1537, Metabolic Activation: NONE, Method: STANDARD PLATE
[9] = Test System: AMES SALMONELLA TYPHIMURIUM, Strain/Indicator: TA1537, Metabolic Activation: RAT, LIVER, S-9, AROCLOR 1254, Method: STANDARD PLATE
[10] = Test System: AMES SALMONELLA TYPHIMURIUM, Strain/Indicator: TA1535, Metabolic Activation: HAMSTER, LIVER, S-9, AROCLOR 1254, Method: STANDARD PLATE

O=C1Nc2ccc(Cl)cc2C(c2ccccc2)=NC1O (centres undefined)
mutagenic call (End Point: IN VITRO MICRONUCLEUS, Test System: HUMAN - HUMAN AMNIOTIC FLUID FIBROBLAST-LIKE (AFFL) CELLS, Metabolic Activation: NONE): active; positive
mutagenic call [1]: active; positive
mutagenic call (End Point: IN VITRO MICRONUCLEUS, Test System: SYRIAN HAMSTER EMBRYO FIBROBLAST (SHE) CELLS, Metabolic Activation: NONE): active; positive
mutagenic call (Test System: AMES SALMONELLA TYPHIMURIUM, Strain/Indicator: TA97, Metabolic Activation: HAMSTER, LIVER, S-9, AROCLOR 1254 (10%), Method: PREINCUBATION): inactive; negative
mutagenic call (Test System: AMES SALMONELLA TYPHIMURIUM, Strain/Indicator: TA97, Metabolic Activation: HAMSTER, LIVER, S-9, AROCLOR 1254 (30%), Method: PREINCUBATION): inactive; negative
mutagenic call (Test System: AMES SALMONELLA TYPHIMURIUM, Strain/Indicator: TA97, Metabolic Activation: NONE, Method: PREINCUBATION): inactive; negative
mutagenic call (Test System: AMES SALMONELLA TYPHIMURIUM, Strain/Indicator: TA97, Metabolic Activation: RAT, LIVER, S-9, AROCLOR 1254 (30%), Method: PREINCUBATION): inactive; negative
mutagenic call (Test System: AMES SALMONELLA TYPHIMURIUM, Strain/Indicator: TA98, Metabolic Activation: HAMSTER, LIVER, S-9, AROCLOR 1254 (10 OR 30%), Method: PREINCUBATION): inactive; negative
mutagenic call (Test System: AMES SALMONELLA TYPHIMURIUM, Strain/Indicator: TA98, Metabolic Activation: NONE, Method: PREINCUBATION): inactive; negative
mutagenic call [2]: inactive; negative
mutagenic call (Test System: AMES SALMONELLA TYPHIMURIUM, Strain/Indicator: TA98, Metabolic Activation: RAT, LIVER, S-9, AROCLOR 1254 (10 OR 30%), Method: PREINCUBATION): inactive; negative
mutagenic call [3]: inactive; negative
mutagenic call (Test System: AMES SALMONELLA TYPHIMURIUM, Strain/Indicator: TA100, Metabolic Activation: HAMSTER, LIVER, S-9, AROCLOR 1254 (10%), Method: PREINCUBATION): inactive; negative
mutagenic call (Test System: AMES SALMONELLA TYPHIMURIUM, Strain/Indicator: TA100, Metabolic Activation: HAMSTER, LIVER, S-9, AROCLOR 1254 (30%), Method: PREINCUBATION): inactive; negative
mutagenic call (Test System: AMES SALMONELLA TYPHIMURIUM, Strain/Indicator: TA100, Metabolic Activation: NONE, Method: PREINCUBATION): inactive; negative
mutagenic call [4]: inactive; negative
mutagenic call (Test System: AMES SALMONELLA TYPHIMURIUM, Strain/Indicator: TA100, Metabolic Activation: RAT, LIVER, S-9, AROCLOR 1254 (10%), Method: PREINCUBATION): inactive; negative
mutagenic call (Test System: AMES SALMONELLA TYPHIMURIUM, Strain/Indicator: TA100, Metabolic Activation: RAT, LIVER, S-9, AROCLOR 1254 (30%), Method: PREINCUBATION): inactive; negative
mutagenic call [5]: inactive; negative
mutagenic call (Test System: AMES SALMONELLA TYPHIMURIUM, Strain/Indicator: TA102, Metabolic Activation: HAMSTER, LIVER, S-9, AROCLOR 1254 (10%), Method: PREINCUBATION): inactive; negative
mutagenic call (Test System: AMES SALMONELLA TYPHIMURIUM, Strain/Indicator: TA102, Metabolic Activation: HAMSTER, LIVER, S-9, AROCLOR 1254 (30%), Method: PREINCUBATION): inactive; negative
mutagenic call (Test System: AMES SALMONELLA TYPHIMURIUM, Strain/Indicator: TA102, Metabolic Activation: NONE, Method: PREINCUBATION): inactive; negative
mutagenic call (Test System: AMES SALMONELLA TYPHIMURIUM, Strain/Indicator: TA102, Metabolic Activation: RAT, LIVER, S-9, AROCLOR 1254 (10%), Method: PREINCUBATION): inactive; negative
mutagenic call (Test System: AMES SALMONELLA TYPHIMURIUM, Strain/Indicator: TA102, Metabolic Activation: RAT, LIVER, S-9, AROCLOR 1254 (30%), Method: PREINCUBATION): inactive; negative
mutagenic call (Test System: AMES SALMONELLA TYPHIMURIUM, Strain/Indicator: TA1535, Metabolic Activation: HAMSTER, LIVER, S-9, AROCLOR 1254 (10%), Method: PREINCUBATION): inactive; negative
mutagenic call (Test System: AMES SALMONELLA TYPHIMURIUM, Strain/Indicator: TA1535, Metabolic Activation: HAMSTER, LIVER, S-9, AROCLOR 1254 (30%), Method: PREINCUBATION): inactive; negative
mutagenic call (Test System: AMES SALMONELLA TYPHIMURIUM, Strain/Indicator: TA1535, Metabolic Activation: NONE, Method: PREINCUBATION): inactive; negative
mutagenic call [6]: inactive; negative
mutagenic call (Test System: AMES SALMONELLA TYPHIMURIUM, Strain/Indicator: TA1535, Metabolic Activation: RAT, LIVER, S-9, AROCLOR 1254 (10%), Method: PREINCUBATION): inactive; negative
mutagenic call (Test System: AMES SALMONELLA TYPHIMURIUM, Strain/Indicator: TA1535, Metabolic Activation: RAT, LIVER, S-9, AROCLOR 1254 (30%), Method: PREINCUBATION): inactive; negative
mutagenic call [7]: inactive; negative
mutagenic call [8]: inactive; negative
mutagenic call [9]: inactive; negative

C=CCc1cc(OC)c2c(c1)OCO2
mutagenic call (Test System: UDS RAT HEPATOCYTES, Strain/Indicator: THY INCORP, Metabolic Activation: NONE, Method: LIQUID SCINTILLATION COUNTING): inactive; negative

CCCOS(C)(=O)=O
mutagenic call [1]: active; positive
mutagenic call (End Point: IN VITRO MICRONUCLEUS, Test System: MOUSE LYMPHOMA L5178Y CELLS, Metabolic Activation: RAT, LIVER, S-9): inactive; negative; authors report results as weakly positive
mutagenic call (End Point: In vitro micronucleus, Test System: Chinese Hamster Ovary (CHO-WBL) cells, Metabolic Activation: None): active; positive (p<0.01)
mutagenic call [4]: active; positive
mutagenic call (Test System: AMES SALMONELLA TYPHIMURIUM, Strain/Indicator: TA100, Metabolic Activation: RAT, LIVER, S-9, Method: STANDARD PLATE): active; positive

CCCCCCN(N=O)/C(N)=N/[N+](=O)[O-]
mutagenic call [6]: active; positive

O.O.O.O=C([O-])[C@H]([O-])[C@@H]([O-])C(=O)[O-].O=C([O-])[C@H]([O-])[C@@H]([O-])C(=O)[O-].[K+].[K+].[Sb+3].[Sb+3]
mutagenic call (Test System: AMES SALMONELLA TYPHIMURIUM, Strain/Indicator: TA98, Metabolic Activation: HAMSTER, LIVER, S-9, AROCLOR 1254, Method: STANDARD PLATE): inactive; negative
mutagenic call [2]: inactive; negative
mutagenic call [3]: inactive; negative
mutagenic call (Test System: AMES SALMONELLA TYPHIMURIUM, Strain/Indicator: TA100, Metabolic Activation: HAMSTER, LIVER, S-9, AROCLOR 1254, Method: STANDARD PLATE): inactive; negative
mutagenic call [4]: inactive; negative
mutagenic call [5]: inactive; negative
mutagenic call [10]: inactive; negative
mutagenic call [6]: inactive; negative
mutagenic call [7]: inactive; negative
mutagenic call (Test System: AMES SALMONELLA TYPHIMURIUM, Strain/Indicator: TA1537, Metabolic Activation: HAMSTER, LIVER, S-9, AROCLOR 1254, Method: STANDARD PLATE): inactive; negative
mutagenic call [8]: inactive; negative
mutagenic call [9]: inactive; negative
mutagenic call (Test System: AMES SALMONELLA TYPHIMURIUM, Strain/Indicator: TA1538, Metabolic Activation: HAMSTER, LIVER, S-9, AROCLOR 1254, Method: STANDARD PLATE): inactive; negative
mutagenic call (Test System: AMES SALMONELLA TYPHIMURIUM, Strain/Indicator: TA1538, Metabolic Activation: NONE, Method: STANDARD PLATE): inactive; negative
mutagenic call (Test System: AMES SALMONELLA TYPHIMURIUM, Strain/Indicator: TA1538, Metabolic Activation: RAT, LIVER, S-9, AROCLOR 1254, Method: STANDARD PLATE): inactive; negative
mutagenic call (Test System: MOUSE LYMPHOMA, Strain/Indicator: L5178Y (TK+/TK-), Metabolic Activation: NONE, Method: SUSPENSION/PLATE): active; positive. reevaluation of results: positive
mutagenic call (Test System: MOUSE LYMPHOMA, Strain/Indicator: L5178Y (TK+/TK-), Metabolic Activation: RAT, LIVER, S-9, AROCLOR 1254, Method: SUSPENSION/PLATE): active; positive. reevaluation of results: positive

COC(=O)c1ccc(CN(C)N=O)cc1
mutagenic call [10]: inactive; negative
mutagenic call [6]: inactive; negative
